Active and inactive are the calls of the source.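 How the source made its calls: active means fitted curve reaches a 40% rise in fluorescent cells at or below the top valid dose; inactive means opposite-direction effect, or the rest.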
Test: compound fluorescence in GFP channel, mTEFS cells – imaging, mTEFS fibroblasts, cherry-pick, artefact control for X-chromosome reactivation project, dose response (AID 743396);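 further: raw share of Hoechst-counted cells scored GFP positive without control normalization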
Details: mTEFS fibroblasts autofluorescence, GFP-channel imaging, 3 days; at 19.5 µM (top of the series)
For C=CCn1c(O)c(C(C)=NCc2ccc3c(c2)OCO3)c(=O)[nH]c1=O, the % fluorescent cells increase was 0.135% (inactive).
In the case of Cc1cc(/C=C2/C(=O)NC(=O)N(Cc3ccco3)C2=O)c(C)n1-c1ccccc1O, the % fluorescent cells increase is reported as 0% (inactive).
With O=[N+]([O-])c1ccc(O)c([N+](=O)[O-])c1 the % fluorescent cells increase was 0% (inactive).
In the case of COCCCn1c(N)c(C(=O)Nc2ccccc2)c2nc3ccccc3nc21, the % fluorescent cells increase is reported as 0.01% (inactive).

Same assay, conditions: mTEFS fibroblasts autofluorescence, GFP-channel imaging, 3 days; at 19.5 µM (top of the series); cells pretreated with 5-aza-dC
For COc1ccc(OC)c(/C=C/c2ccc3cccc(O)c3n2)c1, the % fluorescent cells increase was -0.004% (inactive).
In the case of Cc1cc(=O)[nH]c(N/N=C/c2cc(C)n(CC(F)(F)F)c2C)n1, the % fluorescent cells increase is reported as 0% (inactive).
For Cc1cc(NC(=O)CSc2nnc(-c3c[nH]c4ccccc34)n2-c2ccc(F)cc2)no1, the % fluorescent cells increase was 0.026% (inactive).
For Nc1c(-c2ccccc2)c(CN2CCOCC2)nn1-c1ccc(C(=O)O)cc1, the % fluorescent cells increase was 0% (inactive).
With COc1ccc(NC(=O)C(=O)NCCC2CCCCN2S(=O)(=O)c2cccs2)cc1 (centres undefined) the % fluorescent cells increase was 2.33% (inactive).
For Cc1nn2c(NCCCN(C)C)c3c(nc2c1-c1ccccc1)CCCC3, the % fluorescent cells increase was -0.007% (inactive).
For COC(C(=O)NCc1ccc(C)cc1)c1ccccc1 (centres undefined), the % fluorescent cells increase was 0% (inactive).
In the case of N#CC(C#N)=C1C=CC=CN1/C(=C\c1ccco1)C(=O)c1ccc(Br)cc1, the % fluorescent cells increase is reported as 0% (inactive).
For COc1cccc(CNC(=O)CNC(=S)N(Cc2ccccc2)Cc2ccccc2F)c1, the % fluorescent cells increase was 0.054% (inactive).
For CN(C)CCN(C(=O)c1ccc(S(=O)(=O)N(C)c2ccccc2)cc1)c1nc2cc3c(cc2s1)OCCO3, the % fluorescent cells increase was 0% (inactive).
For Cc1onc(-c2c(Cl)cccc2Cl)c1-c1nc2cc(Cl)ccc2c(=O)o1, the % fluorescent cells increase was -0.011% (inactive).
With O=C1Nc2ccccc2/C1=C/c1ccccc1Cl the % fluorescent cells increase was 0% (inactive).
In the case of COc1ccccc1OCCOc1ccc(/C=C2\C(=N)N3N=C(S(C)(=O)=O)SC3=NC2=O)cc1, the % fluorescent cells increase is reported as 0% (inactive).
For Cc1nn(-c2ccccc2)c(N)c1N=O, the % fluorescent cells increase was 0% (inactive).
In the case of CC(C)c1ccc(N2C(=O)/C(=C/N(C)C)SC2=S)cc1, the % fluorescent cells increase is reported as 0.026% (inactive).
In the case of Cc1cc(/C=C2\SC(=S)N(Cc3ccco3)C2=O)c(C)n1-c1ccccc1, the % fluorescent cells increase is reported as 0.981% (inactive).
With Cc1ccc(C(=O)c2oc3ccccc3c2NC(=O)c2cc(-c3ccccc3O)n[nH]2)cc1 the % fluorescent cells increase was 9.74% (inactive).
With CC[N+]1=C(C)C(C)(C)c2cc(C)ccc21 the % fluorescent cells increase was 0.089% (inactive).
With O=C1CSC(c2cccnc2)N1Cc1ccc(Cl)cc1Cl (centres undefined) the % fluorescent cells increase was 0% (inactive).
For CC(=NNc1ccc2ccccc2n1)c1ccccn1, the % fluorescent cells increase was 15.8% (inactive).
For CN(Cc1nccn1C)C(=O)CC1C(=O)NCCN1CC(c1ccccc1)c1ccccc1 (centres undefined), the % fluorescent cells increase was 0.889% (inactive).
For CCOC(=O)Cc1csc(NC(=O)Nc2ccc(F)cc2)n1, the % fluorescent cells increase was 0% (inactive).
With COc1ccc(CCCc2nc3ccccc3[nH]2)cc1 the % fluorescent cells increase was -0.011% (inactive).
For Cc1ccc(S(=O)(=O)N(C)c2ccc(C)c([N+](=O)[O-])c2)cc1, the % fluorescent cells increase was 0.055% (inactive).
In the case of COC(=O)CCN1CCC(c2cc(-c3cccc(C(F)(F)F)c3)n[nH]2)CC1, the % fluorescent cells increase is reported as 0% (inactive).
In the case of COc1ccccc1/C=C/C(=O)OCC(=O)NC(=O)NC1CCCC1, the % fluorescent cells increase is reported as 0% (inactive).
In the case of O=C(Nc1c(Cl)cccc1Cl)Oc1cccc2cccnc12, the % fluorescent cells increase is reported as 6.89% (inactive).
With COc1ccc2c(c1)c(/C=N/Nc1nc3ccccc3[nH]1)c(C)n2C the % fluorescent cells increase was 3.71% (inactive).
With COc1cc(/C=N/Nc2nc(N3CCCC3)nc(N3CCCC3)n2)ccc1OCc1ccccc1F the % fluorescent cells increase was 0.025% (inactive).
With O=C(c1cnccn1)N1CC(=O)N2[C@H](CO)[C@@H](c3ccc(-c4cccc(F)c4)cc3)[C@@H]2C1 the % fluorescent cells increase was -0.166% (inactive).
With COc1ccc(CNC(=O)c2ccc(-c3cnn(C)c3)c3ccoc23)cc1OC the % fluorescent cells increase was 1.28% (inactive).
With O=c1c2ccccc2nnn1Cc1ccc2ccccc2c1 the % fluorescent cells increase was 0.015% (inactive).
In the case of COCCNC(=S)N(Cc1cccnc1)Cc1ccc(OC)c(OC)c1, the % fluorescent cells increase is reported as 1.33% (inactive).
In the case of COc1cc(/C=C/c2ccc3cccc(O)c3n2)cc(OC)c1OC, the % fluorescent cells increase is reported as 0% (inactive).
In the case of Cc1ccc(S(=O)(=O)Nc2ccc3c(c2)C(=O)N([C@H](C)CO)C[C@@H](C)[C@@H](CN(C)Cc2ccc(Cl)c(Cl)c2)OCCCC[C@H](C)O3)cc1, the % fluorescent cells increase is reported as 8.98% (inactive).
In the case of CCOC(=O)c1ccccc1NC(=O)COC(=O)C1CCN(S(=O)(=O)c2ccccc2C(=O)OC)CC1, the % fluorescent cells increase is reported as 0% (inactive).
With C[C@H]1CCCCO[C@@H](CN(C)C(=O)Nc2ccc(C(F)(F)F)cc2)[C@@H](C)CN([C@@H](C)CO)C(=O)c2cc(NC(=O)CCC(F)(F)F)ccc2O1 the % fluorescent cells increase was -0.166% (inactive).
With CC(Sc1nnc(Cc2ccccc2)o1)C(=O)Nc1ccccc1[N+](=O)[O-] (centres undefined) the % fluorescent cells increase was -0.011% (inactive).
In the case of COc1ccccc1CNC(=O)COC(=O)COc1ccccc1F, the % fluorescent cells increase is reported as 1.84% (inactive).
For O=C(CCl)N=c1sccn1Cc1ccc(Cl)cc1Cl, the % fluorescent cells increase was 0% (inactive).
For CC(C)(C=O)C1=CC(=O)c2ccccc2C1=O, the % fluorescent cells increase was 0% (inactive).
For Cc1c(CN2CCCC(C(=O)c3cccc(OC(C)C)c3)C2)c(=O)n(-c2ccccc2)n1C (centres undefined), the % fluorescent cells increase was 0.037% (inactive).
In the case of COC(=O)c1c(NC(=O)c2ccc(C)cc2)csc1C, the % fluorescent cells increase is reported as -0.006% (inactive).
For O=C(Nc1ccccc1)N1C[C@@H]2[C@H](c3ccccc31)[C@H](CO)N2C(=O)c1ccccc1F, the % fluorescent cells increase was 0.041% (inactive).
With Cc1ccc(-c2nc(CS(=O)CC(=O)NCCCN3CC(C)CC(C)C3)c(C)o2)cc1 (centres undefined) the % fluorescent cells increase was 0.023% (inactive).
In the case of Cc1ccc(NC(=O)c2ccc(=O)[nH]c2)cc1S(=O)(=O)N1CCCCCC1, the % fluorescent cells increase is reported as 0.615% (inactive).
In the case of Cc1cccc2sc(N(CCCN(C)C)C(=O)CN3C(=O)c4ccccc4C3=O)nc12, the % fluorescent cells increase is reported as 0% (inactive).
In the case of CCCCOc1nc2ccccc2nc1NS(=O)(=O)c1ccc(F)cc1, the % fluorescent cells increase is reported as 0% (inactive).
With CN(C)CC(=O)N1CC2(C1)[C@@H](c1ccccc1)[C@H](CO)N2C(=O)C1CC1 the % fluorescent cells increase was -0.147% (inactive).
In the case of CN(Cc1cccs1)C(=O)Cc1c[nH]c2ccccc12, the % fluorescent cells increase is reported as 0.005% (inactive).
In the case of Cc1ccc(N(C)C(=O)C2CCN(S(=O)(=O)c3ccc4c(c3)oc(=O)n4C)CC2)cc1, the % fluorescent cells increase is reported as -0.007% (inactive).
In the case of Cc1cc2c(NC(=O)Nc3ccc(C(C)(C)C)cc3)cccc2nn1, the % fluorescent cells increase is reported as 0.237% (inactive).
With Cn1c(=O)c2[nH]c(-c3ccc(S(=O)(=O)O)cc3)nc2n(C)c1=O the % fluorescent cells increase was 0.085% (inactive).
In the case of Cc1ccc(O)c(N=Nc2ccc(S(=O)(=O)N3CCCC3)cc2)c1, the % fluorescent cells increase is reported as 0% (inactive).
With O=C1CCCC(O)=C1Sc1cc(Cl)c(Cl)cc1Cl the % fluorescent cells increase was 0% (inactive).
In the case of COc1cccc(-c2ccc(C3[C@@H]4CN(C(=O)C5CCCCC5)C[C@H]3N4)cc2)c1 (some centres undefined), the % fluorescent cells increase is reported as 0% (inactive).
In the case of Cc1cccc(-c2ccc([C@H]3[C@H](CO)N4CCCCN(C(=O)NC(C)C)C[C@@H]34)cc2)c1, the % fluorescent cells increase is reported as -0.166% (inactive).
For CC(=O)C1=NN(c2ccc(Cl)cc2)C(c2ccc3c(c2)OCO3)N(C(C)=O)N1C (centres undefined), the % fluorescent cells increase was -0.011% (inactive).
For O=C(N/N=C/c1ccc(O)c2ncccc12)c1cccc(Br)c1, the % fluorescent cells increase was -0.003% (inactive).
In the case of O=C(O)CSc1ncccn1, the % fluorescent cells increase is reported as 0.143% (inactive).
In the case of COc1ccc(-c2ccc(C(=O)NCc3cccs3)c3occc23)c(C)c1, the % fluorescent cells increase is reported as 0.07% (inactive).
In the case of C/C=C/Cn1c(SCCCc2ccccc2)nc2c1c(=O)[nH]c(=O)n2C, the % fluorescent cells increase is reported as -0.004% (inactive).
With Oc1c(C(c2ccccc2Cl)N2CCCC2)ccc2cccnc12 (centres undefined) the % fluorescent cells increase was 0% (inactive).
In the case of COc1cc(/C=C/C(=O)c2ccc3c(c2)OCCO3)cc(Br)c1OCC(=O)N(C)C, the % fluorescent cells increase is reported as 7.79% (inactive).
With COc1ccc(CN(C)C[C@H]2OCCCC[C@@H](C)Oc3ccc(NC(=O)Nc4ccc(F)cc4)cc3C(=O)N([C@@H](C)CO)C[C@H]2C)cc1 the % fluorescent cells increase was 0% (inactive).
For O=[N+]([O-])c1ccc(Sc2nnnn2-c2ccccc2)nc1, the % fluorescent cells increase was -0.007% (inactive).
With COc1ccc(C2=NOC3(CC(=O)N(c4ccc(F)cc4)C3=O)C2)cc1 (centres undefined) the % fluorescent cells increase was 0.016% (inactive).
With CC(C)Oc1ccc(/C(O)=C2/C(=O)C(=O)N(CCN(C)C)C2c2cccs2)cc1 (centres undefined) the % fluorescent cells increase was 0% (inactive).
With CC(O)(c1ccccc1)c1nc(-c2ccncc2)cs1 (centres undefined) the % fluorescent cells increase was 0.38% (inactive).
For CCn1nc(C)cc1-c1nnc(Sc2ncc([N+](=O)[O-])s2)n1C, the % fluorescent cells increase was 0% (inactive).
In the case of COc1ccccc1CN1CC[C@H]2[C@H](CO)Nc3ccc(C#Cc4ccccc4)cc3[C@H]21, the % fluorescent cells increase is reported as 0% (inactive).
In the case of CC(C)N1CCc2c(sc(NC(=O)c3cc4cc([N+](=O)[O-])ccc4s3)c2C(N)=O)C1, the % fluorescent cells increase is reported as 0% (inactive).
In the case of [N-]=[N+]=CC(=O)C(O)(c1ccccc1)C(Cl)c1ccccc1 (centres undefined), the % fluorescent cells increase is reported as -0.007% (inactive).
In the case of COc1ccccc1-c1cc(C(=O)N2CCCc3ccccc32)no1, the % fluorescent cells increase is reported as 0.006% (inactive).
In the case of Nc1nc(Nc2ccc(Cl)cc2)c(NC=O)c(=O)[nH]1, the % fluorescent cells increase is reported as 18.8% (inactive).
With C[C@H]1CN([C@@H](C)CO)C(=O)c2cc(NC(=O)CCCCCC(=O)Nc3ccccc3N)ccc2O[C@H]1CN(C)C(=O)Nc1ccccc1 the % fluorescent cells increase was 0.017% (inactive).
With O=C(O)c1cccnc1C(=O)N1CCc2c([nH]c3ccccc23)C1C(F)(F)F (centres undefined) the % fluorescent cells increase was 0.447% (inactive).
With CCOC(=O)N1CCN(C(=O)Cn2ccc3c(OC)cccc3c2=O)CC1 the % fluorescent cells increase was 0.012% (inactive).
For COc1ccc(NC(=O)N(C)[C@H]2C[C@H]3c4[nH]c5ccc(-c6ccc(OC)cc6)cc5c4CCN3C(=O)[C@H]2[C@H](C)O)cc1, the % fluorescent cells increase was 0.507% (inactive).
For COc1ccc(C(=O)N/N=C/c2cc(Br)ccc2O)cc1OC, the % fluorescent cells increase was 4.96% (inactive).

— PubChem BioAssay AID743396 (Broad Institute, 2014)
